What was measured:
[1] = tested on: serum triglyceride levels; test: Comparative efficacy study (triglyceride lowering effects) in Swiss albino mice; assay type: in vivo; conditions: for % Change Day 6 vs Day 0 (serum triglycerides) / % Change Vs control (serum triglycerides) / Serum triglycerides Day 6: 1 mg/kg free acid equivalent, oral, once daily for six days; for % Change Vs control (serum triglycerides): vs vehicle control; for reduction in serum triglyceride levels as compared to vehicle control group: p.o., six days; for Serum triglycerides Day 0: Day 0, before treatment, male Swiss albino mice, 6 per group; for Serum triglycerides Day 6: Day 6, one hr after dose
Protocol: The in-vivo efficacy of test compound was evaluated in Swiss albino mice. Anti-dyslipidemic drugs have been reported to lower circulating levels of triglyceride in Swiss albino mice through their effect on genes involved in the peroxisomal fatty acid beta oxidation via PPAR alpha agonism. Therefore, this species is preferred for evaluation of their efficacy in lowering circulating triglyceride (TG) levels.
In this experiment, ten to eleven week old male Swiss albino mice were issued and kept for acclimatization. Near the end of the acclimatization period, animals judged to be suitable for testing were bled under light anesthesia and serum samples were analyzed for serum triglyceride levels.
Test compounds were formulated at specified doses in vehicle (MiliQ Water). The animals were dosed orally, once daily in the morning during six days, starting from next day of grouping with vehicle or test compound. The animals were weighed prior to dosing, and based on these weights; the volume of administration was calculated. The volume of formulation administered to each mouse was 10 ml/kg body weight.
On day 6, one-hr after the dose administration, blood (0.25 ml) was collected from retro-orbital sinus of the anaesthetized animals. Serum was separated by centrifugation. Serum was analyzed for triglyceride levels. Analysis for serum triglyceride levels was performed using Spectrophotometer and commercially available kit. Calculations for determination of % change and % reduction in serum TG levels (Table 3) were performed using MS Excels sheet.

[2] = Stability of selected compounds measured by HPLC purity over 6 months; assay type: physicochemical
Protocol: • Column: YMC-pack ODS-AM (type L1) or equivalent; 250×4.6 mm, 5 μm • Wave length: 294 nm • Column temp.: 30° C. • Mobile phase: [Ammonium acetate buffer: Acetonitrile]/[55:45] • Flow rate: 1 ml/min • Injection vol.: 5 μl • Retention time: About 10 mints. • Run time: 60 mints.

[3] = Stability study of Saroglitazar free acid (purity and % of impurity on storage); assay type: physicochemical
Description: Further the Saroglitazar free acid as disclosed in WO03009841 was always obtained in liquid form.

| Molecule | % Change Day 6 vs Day 0 (serum triglycerides) [1] [%] | % Change Vs control (serum triglycerides) [1] [%] | reduction in serum triglyceride levels as compared to vehicle control group ([1]; 1 mg/kg) | Serum triglycerides Day 0 [1] [mg/dL] | Serum triglycerides Day 6 [1] [mg/dL] | HPLC (% purity) At 0 month [2] [%] | HPLC (% purity) After 6 months [2] [%] | Serum triglycerides Day 6 ([1]; 1 mg/kg) [mg/dL] | other results |
| --- | --- | --- | --- | --- | --- | --- | --- | --- | --- |
| CCO[C@@H](Cc1ccc(OCCn2c(C)ccc2-c2ccc(SC)cc2)cc1)C(=O)[O-].[Na+] [Example 6, (S)-2-ethoxy-3-(4-(2-(2-methyl-5-(4-(methylthio)phenyl)-1H-pyrrol-1-yl)ethoxy)phenyl)propanoic Acid Sodium Salt] | −34.4 ± 10.5 | −62.7 ± 6.0 | 62.7% | 59.6 ± 5.4 | 39.0 ± 7.5 | – | – | – | – |
| CCO[C@@H](Cc1ccc(OCCn2c(C)ccc2-c2ccc(SC)cc2)cc1)C(=O)[O-].[Li+] [Example 12, (S)-2-ethoxy-3-(4-(2-(2-methyl-5-(4-(methylthio)phenyl)-1H-pyrrol-1-yl)ethoxy)phenyl)propanoic Acid Lithium Salt] | – | – | – | – | – | 96.82 | 95.50 | – | – |
| CCO[C@@H](Cc1ccc(OCCn2c(C)ccc2-c2ccc(SC)cc2)cc1)C(=O)O [Saroglitazar, (S) 2-Ethoxy-3-(4-{2-[2-methyl-5-(4-methylthiophenyl)-pyrrol-1-yl]-ethoxy}-phenyl)-propionic acid] | 8.7 ± 9.0 | −38.2 ± 5.1 | 38.2% | 61.8 ± 7.4 | 65.9 ± 7.7 | – | – | – | % of impurity (RT-~22.0 min) AFTER 6 DAYS ([3]; at 0-5° C.): (0.598%); PURITY AFTER 6 DAYS ([3]; at 0-5° C.): 98.44%; % of impurity (RT-~22.0 min) AFTER 17 DAYS ([3]; at 0-5° C.): (0.631%); PURITY AFTER 17 DAYS ([3]; at 0-5° C.): 98.39%; % of impurity (RT-~22.0 min), initial ([3]; at 0-5° C.): (0.573%); INITIAL PURITY ([3]; at 0-5° C.): 98.11%; % of impurity (RT-~22.0 min) AFTER 6 DAYS ([3]; at 25~30° C.): (0.770%); PURITY AFTER 6 DAYS ([3]; at 25~30° C.): 98.12%; % of impurity (RT-~22.0 min) AFTER 17 DAYS ([3]; at 25~30° C.): (0.850%); PURITY AFTER 17 DAYS ([3]; at 25~30° C.): 97.87%; % of impurity (RT-~22.0 min), initial ([3]; at 25~30° C.): (0.573%); INITIAL PURITY ([3]; at 25~30° C.): 98.11%; stability (in words) ([3]; room temperature conditions): less stable |
| (S)-2-ethoxy-3-(4-(2- (2-methyl-5-(4-(methylthio)phenyl)-1H-pyrrol-1-yl)ethoxy)phenyl)propanoic Acid Magnesium Salt [Example 31] | – | – | – | – | – | 96.95 | 95.55 | – | – |
| (S)-2-ethoxy-3-(4-(2-(2-methyl-5-(4-(methylthio)phenyl)-1H-pyrrol-1-yl)ethoxy)phenyl)propanoic Acid Aluminum Salt [Example 14] | −35.1 ± 10.9 | −63.1 ± 6.2 | 63,1% | 61.9 ± 7.4 | 37.4 ± 3.4 | 96.79 | 94.94 | – | – |
| (S)-2-ethoxy-3-(4-(2-(2-methyl-5-(4-(methylthio)phenyl)-1H-pyrrol-1-yl)ethoxy)phenyl)propanoic Acid Magnesium Salt [Example 28] | −47.7 ± 10.2 | −70.2 ± 5.8 | – | 64.3 ± 8.6 | – | 93.08 | 90.72 | 30.0 ± 3.8 | – |
| (S)-2-ethoxy-3-(4-(2-(2-methyl-5-(4-(methylthio)phenyl)-1H-pyrrol-1-yl)ethoxy)phenyl)propanoic Acid Magnesium Salt [Example 29] | −35.5 ± 7.5 | −63.3 ± 4.3 | – | 59.4 ± 5.0 | – | 97.68 | 94.63 | 37.0 ± 3.5 | – |
| (S)-2-ethoxy-3-(4-(2-(2-methyl-5-(4-(methylthio)phenyl)-1H-pyrrol-1-yl)ethoxy)phenyl)propanoic Acid Magnesium Salt [Example 32] | −44.5 ± 10.4 | −68.4 ± 5.9 | – | 61.9 ± 7.7 | – | 97.10 | 95.78 | 32.6 ± 4.9 | – |
| (S)-2-ethoxy-3-(4-(2-(2methyl-5-(4-(methylthio)phenyl)-1H-pyrrol-1-yl)ethoxy)phenyl)propanoic Acid Calcium Salt [Example 16] | −33.9 ± 14.3 | −62.4 ± 8.1 | 62.4% | 61.3 ± 6.4 | 38.2 ± 5.6 | 96.83 | 96.76 | – | – |

Source: patent publication US20220169603A1, “NOVEL SALTS, CRYSTALLINE FORMS AND PREMIX OF HYPOLIPIDEMIC AGENT” (Cadila Healthcare Ltd., priority 2019, published 2022)
